Our source for the ED50 values is patent US5780474A, “3-(piperid-4-yl)-1,2-benzisoxazole and 3-(piperazin-4-yl)-1,2-benzisoxazole compounds” (Adir et Compagnie, priority 1996, dated 1998).

SMILES strings stand for the structures.

Data set [1] has as its system verticalisation induced by apomorphine. As to the kind of experiment: Verticalisation induced by apomorphine in the mouse. Format: in vivo. The settings on record: sc, product s.c. 30 min before apomorphine 0.75 mg/kg s.c., read-out: ID50 verticalisation. The protocol: 1. Verticalisation induced by apomorphine (0.75 mg/kg, s.c.) in the mouse
This test, described by Protais et al., Psychopharmacology, 50, 1-6 (1976), allows the evaluation of the dopaminergic antagonist activity of possible anti-psychotic products. A mouse to which apomorphine has been administered and which has been placed in a cage with vertical bars will, most of the time, remain immobile at the top of the cage, clinging by its four paws to the bars. This verticalisation behaviour is blocked if a dopaminergic antagonist product has been administered before the apomorphine.
Test immediately after subcutaneous (s.c.) administration of the product or solvent (control group), the mouse is placed in a cylindrical cage (14 cm diam.×14 cm height) with vertical bars. Thirty minutes later, the animal receives the dose of apomorphine (0.75 mg/kg, s.c.). […]
Statistical analysis: The effect of the product on verticalisation is evaluated by comparing the scores obtained for each group that has received a dose of product with those obtained for the control group (solvent) using a Mann and Whitney U test with a probability of p<0.05. […]

The subject of data set [2] is conditioned avoidance response. The data set is described as follows: Active avoidance conditioning in the rat. In kind it is in vivo. The settings on record: sc, administered subcutaneously 30 minutes before the session, read-out: ID50 conditioned avoidance responses. As to the method:
2. Active avoidance conditioning in the rat
This test is conventionally used to characterise anti-psychotic products, cf. P. A. Janssen, C. J. E. Niemegeers, Arzneim-Forsch., 1037-1043 (1961).
It is carried out in a cage having two compartments with an electrified floor, on rats that have been conditioned in the following manner: on presentation of a light signal, the animal must move from the compartment in which it is situated to the other compartment in order not to receive an electric shock. The response of the animal to the light signal is a conditioned Avoidance response. […] The response to the electric shock is an unconditioned Escape response.
Conventionally, anti-psychotic products inhibit the conditioned Avoidance response at doses lower than those which inhibit the non-conditioned Escape response. That differentiates them from other classes of products (in particular, barbiturates and benzodiazepines), which inhibit both responses alike. […]
Test: the animals are their own controls. […] The effects of a product on the avoidance responses are evaluated during a Test Session which takes places the day after a Control Session during the course of which the animals will have received the solvent. […]

The subject of data set [3] is aggressiveness in isolated mice. The data set is described as follows: Test of aggressiveness in isolated mice. In kind it is in vivo. The settings on record: Mus musculus, sc, administered subcutaneously 30 minutes before test, read-out: ID50 number or duration of the attacks. The text has this:
3. Test of aggressiveness in isolated mice
This test allows the evaluation of the intraspecies anti-aggressive activity of a product in mice that have been kept in isolation for several months.
Animals: The test uses male CD mice (Charles River) weighing from 22 to 25 g on arrival at the animal house. Immediately on arrival the animals are isolated in individual cages made of opaque black polycarbonate (23×14×13 cm) having a grill lid, and are housed for a prolonged period (approximately 6 months) in the experimentation room.
Selection of pairs of mice: The selection of pairs of aggressive mice that will be used on a long-term basis in the study starts after the animals have been isolated for one month. Once or twice per week a mouse from another cage (intruder) is placed in the cage of a (resident) mouse and the two animals are observed to see if they attack one another (sniffing, pursuing, nipping, biting) during that trial. At the end of the trial (maximum duration of 10 minutes), each mouse is isolated again in its own cage. If attacks have occurred, the same pair will be tested again in the next trial; if there have been no attacks, each mouse of that pair will be placed in the presence of a different mouse in the following trial. […]

The nature of data set [4]: in vivo. The settings on record: rat.
Description: Induction of catalepsy in the rat
Test: the animals are placed in individual cages and food is withdrawn the day before the test, but drink is taken as desired. The catalepsy test comprises placing each rear paw of the animal on the front paw of the same side and measuring the time (seconds) during which the animal remains in that "crossed paws" position (maximum 30 seconds). Each animal is subjected to three successive tests (one every two minutes), the animal being removed from its cage and placed on the work surface. The tests are carried out one hour after the subcutaneous injection or oral administration of the product or its solvent. The average value of the three tests represents the duration of the catalepsy (in seconds) for each animal. There are five or six rats per experimental group.
Statistical analysis: The effect of the product on the duration of catalepsy is evaluated by an ANOVA, followed by a Dunnett's test, with a probability of p<0.05.

Turning to `O=C1N(CCN2CCC(c3noc4cc(F)ccc34)CC2)CCN1c1ccccc1` [Example 5, 1-{2-[4-(6-Fluoro-1,2-benzisoxazol-3-yl)piperid-1-yl]ethyl}-3-phenylimidazolidin-2-one], the ED50 in data set [1] turned out to be 0.22 mg/kg; in data set [2], 0.88 mg/kg; in data set [3] it was 0.18 mg/kg. In data set [4], this compound had an ED50 at 1 h of 34 mg/kg.

In the case of `O=C(CCCN1CCC(O)(c2ccc(Cl)cc2)CC1)c1ccc(F)cc1` [haloperidol, reference compound], the ED50 at 1 h in data set [4] (sc) amounted to 0.15 mg/kg.
